This is an account of results in patent publication US20240408077A1, “ATM KINASE INHIBITORS FOR USE IN THE TREATMENT OF NEUROLOGICAL CONDITIONS” (The University of Birmingham, priority 2021, published 2024).

Like-named read-outs stand apart in the source and are kept apart here.

Data set [1] has as its system DC injury model of SCI. The experiment in a line: tape sensing and removal test (sensory function) after DC injury. As to conditions: oral; for tape sensing and removal time: over 6 weeks after DC injury, versus controls. It counts as in vivo, mice. How it is done:
(§1) Mice were subcutaneously injected with Buprenorphine and anaesthetized using 5% isoflurane and 1.8 l/min O2. After a partial laminectomy at T8, DC were crushed bilaterally using calibrated watchmaker's forceps as described by us previously (12). Animals were dosed immediately after injury and allowed to recover in their home cage. Drugs were given every 24 hours for the duration of each experiment. Tape sensing and removal and horizontal ladder crossing tests were used to detect sensory and locomotor changes after DC injury and treatment as described by us previously (7). Briefly, tape sensing and removal was tested by attaching a 15/15 mm piece of sticky tape (Kip Hochkrepp, Bocholt, Germany) onto the plantar surface of each the left paw of each mouse and recording the time taken to detect and remove the tape. For the ladder crossing test, each mouse was trained prior to DC injury to master the traversing the ladder (0.9 m long and 15.5 cm wide with randomly adjusted rungs). Animals were assessed crossing the ladder and the total number of steps and the number of left and right hind paw slips were recorded and presented as an error ratio. All of these tests were performed at 2 days after injury, then at 1 week followed by weekly tests for 6 weeks. The experimenter was masked to the treatment conditions and animals were assessed in the same order and time of day with each test performed for 3 individual trials on each occasion.

Another data set has as its system γH2Ax+ foci. As to conditions: twice weekly injections directly into the CSF, cited from earlier work.
Data set [2] has as its target T1, phosphorylated ATM (pATM) (Rattus norvegicus, UniProt D4ACL8).
T1 construct: Total protein was extracted from DRGN cultures and fresh DRG tissues; endogenous in cells; host or cells: primary adult rat dorsal root ganglion neurons
The experiment in a line: pATM levels in DRGN cultures, western blot and densitometry. It counts as cell-based. As to the method: Primary adult rat DRGN cultures were prepared as described by us previously (11). DRGN were dissociated using collagenase and cultured in supplemented Neurobasal-A (#10888022; NBA) containing B27 supplement (#17504044), L-glutamine (#25030081) and gentamicin (#15710064) (all from Invitrogen, Paisley, UK) at a plating density of 500/well in 8-well chamber slides (#C6932; Beckton Dickinson, Oxford, UK) pre-coated with 100 μg/ml poly-D-lysine (#P6407; Sigma, Poole, UK). […] Sigma) at 30 μM (11). […] Positive controls included pre-optimized fibroblast growth factor-2 (FGF-2) (#100-18C, Peprotech, London, UK; 10 ng/ml (11)). Cells were cultured for 4 days in a humidified chamber at 37° C. and 5% CO2 before being subjected to immunocytochemistry, as described below. Treatments were added in triplicate and repeated on 3 independent occasions (i.e. total n=9 wells/treatment) by an investigator masked to the treatment conditions. […] Tocris, Oxford, UK) were dissolved in DMSO (Sigma, Poole, UK) at stock concentrations of 10 mM for in vitro use. […] After a protein assay using the Bradford Assay Kit (#5000001; […] Proteins were then transferred onto PVDF membranes (#1EVH00005, Merck, Gillingham, UK), blocked in non-fat milk and incubated with rabbit anti-pATM ([…]) antibody (#13050, 1:200 dilution, Cell Signalling Technology, London, UK) overnight at 4° C. Membranes were then washed in Tris buffered saline (TBS) and incubated with appropriate mouse/rabbit HRP-labelled secondary antibody (#GENA934; 1:1000 dilution, GE Healthcare, Buckinghamshire, UK) and bands detected using an enhanced chemiluminescence kit (#RPN2108, GE Healthcare). Rabbit anti-β-actin antibody (#ZRB1312, 1:1000; Sigma) was used as a loading control for western blots. For densitometry, western blots were scanned into Adobe Photoshop (Adobe Systems, San Jose, CA, USA) keeping all scanning parameters the same between each blot and densitometrically analysed using the built-in gel plotting macros in ImageJ ([…].gov), as previously described (7).

Data set [3] has as its system DC injury model of SCI. The experiment in a line: horizontal ladder crossing test (locomotor function) after DC injury. It counts as in vivo, mice. As to conditions: oral; for locomotor function, ladder crossing: over 6 weeks after DC injury. As to the method:
as §1

A further data set concerns the target T2, pATM (pSer 1981) (Mus musculus, UniProt Q62388).
T2 construct: L4/L5 DRG pairs were dissected out and snap frozen in liquid nitrogen; from tissue; host or cells: mouse L4/L5 dorsal root ganglia, 4 weeks after DC crush injury
The experiment in a line: pATM levels in DRG after DC crush injury, western blot and densitometry. Format: in vivo, mice. As to conditions: for pATM (pSer 1981) levels: oral 20 mg/kg once daily, DRG at 4 weeks after DC injury; for pATM inhibition in DRGN from SCI treated animals: oral, doses up to 100 mg/kg. How it is done: Mice were subcutaneously injected with Buprenorphine and anaesthetized using 5% isoflurane and 1.8 l/min O2. After a partial laminectomy at T8, DC were crushed bilaterally using calibrated watchmaker's forceps as described by us previously (12). Animals were dosed immediately after injury and allowed to recover in their home cage. Drugs were given every 24 hours for the duration of each experiment.
For western blot, animals were killed at 4 weeks and tissues harvested as described below. For immunohistochemistry and behavioural analysis, animals were treated up to 6 weeks after DC injury.
Methods for tissue harvesting have been described by us previously (7, 12). Briefly, for western blot analysis: animals were killed by rising concentrations of CO2 and L4/L5 DRG pairs were dissected out and snap frozen in liquid nitrogen and stored at −80° C. until required (7). For immunohistochemistry: animals were killed in rising concentrations of CO2 and intracardially perfused with 4% paraformaldehyde (7, 12). The SCI site+5 mm either side of the lesion center was dissected out and postfixed in 4% formaldehyde for 2 hr, followed by cryoprotection in a graded series of sucrose and embedded in optimal temperature cutting medium (#12678646, ThermoFisher). Sections were cut at 15 μm-thick stored at −80° C. until required.
Total protein was extracted from DRGN cultures and fresh DRG tissues as described by us previously (7, 12). Briefly, cultures/DRG tissues were washed in PBS and total protein extracted in ice-cold lysis buffer containing 20 mM HEPES, 1 mM EDTA, 150 mM NaCl, 1% NP-40 and 1 mM DTT and supplemented with protease (#P8340) and phosphatase inhibitor cocktails (#P5726) (all from Sigma). After a protein assay using the Bradford Assay Kit (#5000001; BioRad, Watford, UK), 15 μg of total protein was separated on 12% Tris-glycine SDS-PAGE gels. Proteins were then transferred onto PVDF membranes (#1EVH00005, Merck, Gillingham, UK), blocked in non-fat milk and incubated with rabbit anti-pATM (ser1981) antibody (#13050, 1:200 dilution, Cell Signalling Technology, London, UK) overnight at 4° C. Membranes were then washed in Tris buffered saline (TBS) and incubated with appropriate mouse/rabbit HRP-labelled secondary antibody (#GENA934; 1:1000 dilution, GE Healthcare, Buckinghamshire, UK) and bands detected using an enhanced chemiluminescence kit (#RPN2108, GE Healthcare). Rabbit anti-β-actin antibody (#ZRB1312, 1:1000; Sigma) was used as a loading control for western blots.
For densitometry, western blots were scanned into Adobe Photoshop (Adobe Systems, San Jose, CA, USA) keeping all scanning parameters the same between each blot and densitometrically analysed using the built-in gel plotting macros in ImageJ (ww.nihimage.nih.gov), as previously described (7).

The subject of another data set is DC axons. It counts as in vivo, mice. As to conditions: oral 20 mg/kg once daily; for DC axon regeneration through the lesion site: 6 weeks after injury.
The conditions of data set [4]: after oral administration; cited from earlier work.
The subject of data set [5] is kinases within the same family. As to conditions: cited from earlier work.
For data set [6], the target named is T3, ATM (Homo sapiens, UniProt Q13315). As to conditions: read-out: cell IC50; cited from earlier work.
The subject of another data set is brain gliomas. As to conditions: in combination with daily ionizing radiation therapy; cited from earlier work.
For data set [7], the system named is DC injury model of SCI. The experiment in a line: electrophysiology, compound action potentials across the lesion site after DC injury. As to conditions: oral, 6 weeks after DC injury. It counts as in vivo, mice. How it is done: Mice were subcutaneously injected with Buprenorphine and anaesthetized using 5% isoflurane and 1.8 l/min O2. After a partial laminectomy at T8, DC were crushed bilaterally using calibrated watchmaker's forceps as described by us previously (12). Animals were dosed immediately after injury and allowed to recover in their home cage. Drugs were given every 24 hours for the duration of each experiment. […] Spike 2 software (Cambridge Electronic Design, Cambridge, UK) was used to process and analyse the traces and determine the CAP amplitude and CAP area for each condition.

Another data set concerns primary adult rat DRGN. The experiment in a line: DRGN survival and neurite outgrowth in the presence of CNS myelin extracts. It counts as cell-based. As to conditions: with CME. How it is done:
Primary adult rat DRGN cultures were prepared as described by us previously (11). DRGN were dissociated using collagenase and cultured in supplemented Neurobasal-A (#10888022; NBA) containing B27 supplement (#17504044), L-glutamine (#25030081) and gentamicin (#15710064) (all from Invitrogen, Paisley, UK) at a plating density of 500/well in 8-well chamber slides (#C6932; Beckton Dickinson, Oxford, UK) pre-coated with 100 μg/ml poly-D-lysine (#P6407; Sigma, Poole, UK). Glial cell proliferation was inhibited in cultures using 5-fluoro-2-deoxyuridine (5-FDU; #343333; Sigma) at 30 μM (11). […] Positive controls included pre-optimized fibroblast growth factor-2 (FGF-2) (#100-18C, Peprotech, London, UK; 10 ng/ml (11)). Cells were cultured for 4 days in a humidified chamber at 37° C. and 5% CO2 before being subjected to immunocytochemistry, as described below. Treatments were added in triplicate and repeated on 3 independent occasions (i.e. total n=9 wells/treatment) by an investigator masked to the treatment conditions.
DRGN were fixed in 8-well chamber slides in situ using 4% paraformaldehyde before being subjected to immunocytochemistry with rabbit anti-βIII tubulin antibodies (#T3952; 1:200 dilution; Sigma) to detect DRGN soma and neurites, as described previously (11). Alexa-488 goat […] IgG (#A32723; 1:400 dilution; ThermoFisher, Leicester, UK) secondary antibodies were used to visualize DRGN soma and neurites using an Axioplan 2 epifluorescent microscope equipped with an AxioCam HRc and running Axiovision Software (all from Carl Zeiss, Hertfordshire, UK).
With the investigator masked to the treatment conditions, the proportion of βIII-tubulin^+ DRGN, the number of DRGN with neurites and the longest DRGN neurite length were all calculated using Axiovision Software, as described by us previously (11).

The target in data set [8] is T3, ATM. As to conditions: cited from earlier work.
Setting [9] is: 5 nM, compared to vehicle-treated DRGN.

T1 sequence (D4ACL8 1-3064): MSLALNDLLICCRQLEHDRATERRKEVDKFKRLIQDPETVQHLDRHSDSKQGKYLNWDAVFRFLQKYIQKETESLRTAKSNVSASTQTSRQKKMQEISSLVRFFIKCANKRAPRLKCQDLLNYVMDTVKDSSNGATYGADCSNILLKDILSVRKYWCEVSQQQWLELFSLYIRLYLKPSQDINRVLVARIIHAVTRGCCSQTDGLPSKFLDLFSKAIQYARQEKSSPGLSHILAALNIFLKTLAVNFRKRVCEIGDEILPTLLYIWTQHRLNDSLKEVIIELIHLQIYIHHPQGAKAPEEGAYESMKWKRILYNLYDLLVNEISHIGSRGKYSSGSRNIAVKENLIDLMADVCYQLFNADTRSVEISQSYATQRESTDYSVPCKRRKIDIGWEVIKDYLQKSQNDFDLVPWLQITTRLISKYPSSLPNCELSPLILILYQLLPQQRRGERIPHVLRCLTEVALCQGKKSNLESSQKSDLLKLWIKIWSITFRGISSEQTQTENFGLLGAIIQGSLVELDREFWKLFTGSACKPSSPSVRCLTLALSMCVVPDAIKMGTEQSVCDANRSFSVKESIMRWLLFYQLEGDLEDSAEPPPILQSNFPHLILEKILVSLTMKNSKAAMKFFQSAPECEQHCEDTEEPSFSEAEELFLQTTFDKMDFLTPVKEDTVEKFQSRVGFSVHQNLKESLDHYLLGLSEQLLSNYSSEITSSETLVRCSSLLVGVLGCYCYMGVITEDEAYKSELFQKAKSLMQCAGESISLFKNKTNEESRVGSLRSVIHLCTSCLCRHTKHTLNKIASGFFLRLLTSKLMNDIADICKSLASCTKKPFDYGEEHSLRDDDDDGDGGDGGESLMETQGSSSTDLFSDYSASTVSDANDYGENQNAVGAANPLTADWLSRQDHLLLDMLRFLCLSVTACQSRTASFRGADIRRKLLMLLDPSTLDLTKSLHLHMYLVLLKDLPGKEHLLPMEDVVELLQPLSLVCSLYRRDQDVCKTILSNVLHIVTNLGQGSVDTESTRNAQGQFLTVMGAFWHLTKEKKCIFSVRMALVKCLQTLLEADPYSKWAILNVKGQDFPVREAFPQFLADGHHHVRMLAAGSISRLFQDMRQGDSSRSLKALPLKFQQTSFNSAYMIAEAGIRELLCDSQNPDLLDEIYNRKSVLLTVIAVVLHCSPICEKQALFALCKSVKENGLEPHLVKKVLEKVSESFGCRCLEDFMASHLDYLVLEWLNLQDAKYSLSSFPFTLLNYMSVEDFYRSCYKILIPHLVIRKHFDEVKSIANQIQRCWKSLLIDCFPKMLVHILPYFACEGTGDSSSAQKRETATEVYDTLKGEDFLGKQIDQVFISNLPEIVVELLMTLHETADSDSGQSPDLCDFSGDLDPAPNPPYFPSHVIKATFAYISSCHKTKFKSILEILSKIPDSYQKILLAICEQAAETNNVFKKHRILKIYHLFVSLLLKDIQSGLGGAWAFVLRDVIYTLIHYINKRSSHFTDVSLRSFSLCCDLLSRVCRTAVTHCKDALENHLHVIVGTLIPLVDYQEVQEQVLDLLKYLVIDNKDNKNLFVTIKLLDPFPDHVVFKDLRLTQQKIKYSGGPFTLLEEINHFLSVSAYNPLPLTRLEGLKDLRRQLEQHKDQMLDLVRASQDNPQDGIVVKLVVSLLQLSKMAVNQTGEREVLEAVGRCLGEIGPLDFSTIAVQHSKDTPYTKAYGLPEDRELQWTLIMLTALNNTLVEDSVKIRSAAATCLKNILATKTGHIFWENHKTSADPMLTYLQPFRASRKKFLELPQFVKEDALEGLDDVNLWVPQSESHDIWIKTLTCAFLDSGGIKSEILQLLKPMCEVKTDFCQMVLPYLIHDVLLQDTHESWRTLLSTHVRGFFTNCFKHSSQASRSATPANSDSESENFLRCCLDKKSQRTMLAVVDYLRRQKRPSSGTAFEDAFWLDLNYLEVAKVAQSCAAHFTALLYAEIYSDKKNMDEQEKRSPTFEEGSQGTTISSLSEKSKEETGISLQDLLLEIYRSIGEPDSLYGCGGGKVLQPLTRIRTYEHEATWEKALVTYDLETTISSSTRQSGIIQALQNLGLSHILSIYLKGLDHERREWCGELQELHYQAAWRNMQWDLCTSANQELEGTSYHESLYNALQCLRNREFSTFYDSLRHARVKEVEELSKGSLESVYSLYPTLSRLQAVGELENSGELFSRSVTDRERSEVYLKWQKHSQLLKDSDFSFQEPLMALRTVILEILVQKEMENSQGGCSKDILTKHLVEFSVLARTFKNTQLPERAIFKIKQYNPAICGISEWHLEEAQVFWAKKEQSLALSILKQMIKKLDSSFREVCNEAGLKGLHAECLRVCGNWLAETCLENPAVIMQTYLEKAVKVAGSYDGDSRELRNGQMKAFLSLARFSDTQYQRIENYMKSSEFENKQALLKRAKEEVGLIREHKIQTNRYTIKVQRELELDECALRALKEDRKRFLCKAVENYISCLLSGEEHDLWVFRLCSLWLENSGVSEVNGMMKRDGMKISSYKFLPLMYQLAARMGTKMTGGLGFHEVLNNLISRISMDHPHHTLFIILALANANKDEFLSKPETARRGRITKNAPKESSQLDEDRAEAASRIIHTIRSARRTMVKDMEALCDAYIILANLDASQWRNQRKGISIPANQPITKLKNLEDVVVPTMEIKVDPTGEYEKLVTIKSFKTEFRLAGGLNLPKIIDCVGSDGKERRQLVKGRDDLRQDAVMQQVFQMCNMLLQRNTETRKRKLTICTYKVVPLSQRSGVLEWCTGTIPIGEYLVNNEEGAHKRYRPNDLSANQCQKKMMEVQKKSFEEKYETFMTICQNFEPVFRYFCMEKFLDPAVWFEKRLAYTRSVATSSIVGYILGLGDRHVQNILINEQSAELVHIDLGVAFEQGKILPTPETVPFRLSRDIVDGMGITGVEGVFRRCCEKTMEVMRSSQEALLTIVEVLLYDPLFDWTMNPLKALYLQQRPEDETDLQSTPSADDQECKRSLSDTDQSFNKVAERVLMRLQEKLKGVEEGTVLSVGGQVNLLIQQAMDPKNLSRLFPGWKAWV

Regarding `C[C@@H]1CN(CC(=O)Nc2ccc3c(c2)Cc2cccc(-c4cc(=O)cc(N5CCOCC5)o4)c2S3)C[C@H](C)O1` [KU-60019], the “tape sensing and removal time” value in the data set with DC injury model of SCI [1] is listed as “no effect”. For the same compound, in the data set with γH2Ax+ foci (after SCI), the “γH2Ax+ foci” value is recorded as “reduced”. Further, the “functional recovery after SCI” value with γH2Ax+ foci is “promoted significant functional recovery”. The “ATM activation in vitro” value in [2] is recorded as “able to suppress ATM activation in vitro”. Moreover, in the data set on DC injury model of SCI [3], the “locomotor function, ladder crossing” value is reported as “a significant deficit remained”. In addition, on pATM (pSer 1981) (intrathecal delivery after injury), the “suppression of pATM levels” value is recorded as 81%. Besides, the “pATM (pSer 1981) levels” value on pATM (pSer 1981) is recorded as “no effect”. Besides, the “pATM inhibition in DRGN from SCI treated animals” value was “no pATM inhibition” at pATM (pSer 1981) and “no effect” at pATM (pSer 1981) (listed as KU6000-19). The “DC axon regeneration through the lesion site” value in the data set with DC axons is “not oral KU-60019 promoted DC axon regeneration”.
On to `CC(C)n1c(=O)n(C)c2cnc3ccc(-c4ccc(OCCCN5CCCCC5)nc4F)cc3c21` [AZD1390, 8-[2-Fluoro-6-[3-(I-piperidyl)propoxy]-3-pyridyl]-1-isopropyl-3-methyl-imidazo[4,5-c]quinolin-2-one], for which the “time bioavailable in the brain” value in [4] is on record as “at least 8 hours”. The “selectivity over kinases within the same family” value in data set [5] was > 10,000 fold. Moreover, in the data set with DC injury model of SCI [1] (after injury), the “time for sensory function to return to baseline of sham-uninjured animals” value is given as no more than 4 weeks. The “tape sensing and removal time” value with DC injury model of SCI [1] is reported as “significantly shorter time than controls”. In addition, in [2] (5 nM, compared to vehicle-treated (0 nM) cultures), the “reduction of pATM levels” value worked out at 70%. For the same compound, the “lowest most effective dose for reduction of pATM levels” value in data set [2] (concentrations 1-10 nM tested) is given as 5 nM. For the same compound, in the data set with DC injury model of SCI [3], the “time to recover to sham-uninjured control levels, ladder crossing” value was no more than 4 weeks and the “locomotor function, ladder crossing” value was “marked improvement”. The IC50 at ATM [6] was 780 pM. The “pATM (pSer 1981) levels” value on pATM (pSer 1981) is on record as “significant suppression”. Moreover, the “tumor response and survival” value in the data set on brain gliomas was “induced tumor regression and prolonged survival”. Besides, in the data set with DC injury model of SCI [7], the CAP amplitudes result is recorded as “significantly improved”, the CAP areas entry was “significantly improved” and the CAP trace result is given as “return of a significant CAP trace”. In the data set with DC axons, the “DC axon regeneration through the lesion site” value was “promoted DC axon regeneration through the lesion site and into the rostral cord”. For the same compound, the “axons regenerating beyond the lesion site” value with DC axons (up to 1 mm beyond the lesion site, compared to vehicle-treated mice) was “up to 12%”. Besides, in the data set on primary adult rat DRGN (setting [9]), the “increase of DRGN survival” value was 60%, the “increase of longest neurite length” value was 81% and the “increase of percentage of DRGN with neurites” value is given as 88%. Also, the IC50 at ATM [8] was 500 to 3000 pM.
“FGF-2: fibroblast growth factor-2, positive control (Peprotech), 10 ng/ml”: in the data set on primary adult rat DRGN (FGF-2 10 ng/ml positive control, KU-60019 at concentrations of a recent study), the “DRGN survival and neurite outgrowth in comparison with AZD1390” value is listed as “inferior compared to AZD1390”.
